From ChEMBL document CHEMBL1149067, “Ochrindoles A-D: new bis-indolyl benzenoids from the sclerotia of Aspergillus ochraceus NRRL 3519” (J Nat Prod, 1994) come the findings set out here.

For series [1], the system named is Bacillus subtilis. As to the kind of experiment: Antimicrobial activity against Bacillus subtilis at 100 ug/disk by standard disk assay. It counts as functional. The note with it: read-out: IZ.
Series [2] relates to Helicoverpa zea. In words: Toxicity against Helicoverpa zea larvae assessed as weight gain relative to control. It counts as organism-based. The note with it: in vivo.
Series [3] has as its system Carpophilus. In words: Toxicity against Carpophilus hemipterus assessed as feeding reduction at 200 ppm relative to control. It counts as organism-based. Set-up: scale not given: the % may be the effect or the level left. To be noted: in vivo.

For the molecule `COc1c(CC=C(C)C)c(-c2c[nH]c3ccccc23)c(O)c(O)c1-c1c[nH]c2ccccc12` [OCHRINDOLE C], in series [1], the zone of inhibition at 100 µg/disc came out at 15 mm. Turning to `COc1c(C/C=C(\C)CO)c(-c2c[nH]c3ccccc23)c(OC)c(O)c1-c1c[nH]c2ccccc12` [OCHRINDOLE B], the zone of inhibition at 100 µg/disc in series [1] was 15 mm. For `COc1c(CC=C(C)C)c(-c2c[nH]c3ccccc23)c(OC)c(O)c1-c1c[nH]c2ccccc12` [OCHRINDOLE A], the results for the Activity in series [2] and in series [3] were 30% and 20%, respectively. Besides, the zone of inhibition at 100 µg/disc in series [1] is 15 mm. On to `CC(C)=CCC1=C(c2c[nH]c3ccccc23)C(=O)C(O)=C(c2c[nH]c3ccccc23)C1=O` [OCHRINDOLE D], for which, in series [1], the zone of inhibition at 100 µg/disc is 15 mm.
